Here are results for six compounds from patent US11364248B2 (AMGEN INC., priority 2017, dated 2022).

One assay concerns the target Mcl-1/Bim interaction (Homo sapiens (Human), UniProt Q07820). The assay is described as follows: Cell Free Mcl-1: Bim Affinity Assay (Mcl-1 HTRF). It is filed as binding. The note with it: TR-FRET, recombinant human Mcl-1(171-327), biotin-Bim(51-76); read-out: Mel-1 HTRF IC50. A digest of the protocol:
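TR-FRET competition assay: 0.1 nM His-tagged human Mcl-1(171-327) and 0.05 nM biotin-Bim(51-76) were pre-incubated 60 min with compound in 20 mM Hepes pH 7.5, 150 mM NaCl, Brij35, 1 mM DTT, then with Eu-anti-His/streptavidin-Xlent overnight. The 665/620 nm ratio was fitted by four-parameter model to IC50 (duplicates).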

The test system of the next assay is OPM-2. Kind of assay: Cell Viability Assay (OPM-2 10 FBS). It is filed as cell-based, human. The note with it: OPM-2 cells, CellTiter-Glo, read-out: OPM-2 10% FBS IC50 IP. A digest of the protocol: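 OPM-2 myeloma cells seeded at 3000 cells/well in RPMI 1640 with 10% FBS and exposed to serially diluted compounds for 16 h at 37° C., 5% CO2.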

Where two headings read alike, the source gives them in different places.

Sequence of Mcl-1/Bim interaction (Q07820 171-327): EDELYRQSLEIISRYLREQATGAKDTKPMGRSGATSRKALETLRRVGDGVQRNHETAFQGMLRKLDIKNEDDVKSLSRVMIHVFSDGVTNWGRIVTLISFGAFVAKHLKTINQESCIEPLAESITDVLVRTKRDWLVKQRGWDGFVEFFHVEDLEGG

Turning to `CCN(C)[C@H]1CO[C@@H]([C@H]2CCC[C@H](C)[C@@H](C)S(=O)(=O)NC(=O)c3ccc4c(c3)N(C[C@@H]3CC[C@H]32)C[C@@]2(CCCc3cc(Cl)ccc32)CO4)OC1` [Example 66, (1S,3′R,6′R,7′S,11′S,12′R)-6-chloro-7′-(cis-5-(ethyl(methyl)amino)-1,3-dioxan-2-yl)-11′,12′-dimethyl-3,4-dihydro-2H,15′H-spiro[naphthalene-1,22′-[20]oxa[13]thia[1,14]diazatetracyclo [14.7.2.0~3,6~.0~19,24~]pentacosa[16,18,24]trien]-15′-one 13′,13′-dioxide], the IC50 at Mcl-1/Bim interaction was 1.29 nM; with OPM-2 (Homo sapiens, OPM-2, 16 h), 326 nM.

`CC(=O)N1C[C@@H]2O[C@@H]([C@H]3CCC[C@H](C)[C@@H](C)S(=O)(=O)NC(=O)c4ccc5c(c4)N(C[C@@H]4CC[C@H]43)C[C@@]3(CCCc4cc(Cl)ccc43)CO5)O[C@@H]2C1` [Example 36, (1S,3′R,6′R,7′S,11′S,12′R)-7′-((2r,3aR,6aS)-5-acetyltetrahydro-3aH-[1,3]dioxolo[4,5-c]pyrrol-2-yl)-6-chloro-11′,12′-dimethyl-3,4-dihydro-2H,15′H-spiro[naphthalene-1,22′-[20]oxa[13]thia[1,14]diazatetracyclo [14.7.2.0~3,6~.0~19,24~]pentacosa[16,18,24]trien]-15′-one 13′,13′-dioxide]: the values for the IC50 on Mcl-1/Bim interaction and in the assay on OPM-2 (16 h) were 0.217 nM and 169 nM, respectively.

`C[C@@H]1[C@@H](C)CCC[C@H]([C@H]2O[C@H]3CNC[C@H]3O2)[C@@H]2CC[C@H]2CN2C[C@@]3(CCCc4cc(Cl)ccc43)COc3ccc(cc32)C(=O)NS1(=O)=O` (stereo in doubt) [Example 10, (1S,3′R,6′R,7′R,11′S,12′R)-6-chloro-11′,12′-dimethyl-7′-((2r,3aR,6aS)-tetrahydro-3aH-[1,3]dioxolo[4,5-c]pyrrol-2-yl)-3,4-dihydro-2H,15′H-spiro[naphthalene-1,22′-[20]oxa[13]thia[1,14]diazatetracyclo [14.7.2.0~3,6~.0~19,24~]pentacosa[16,18,24]trien]-15′-one 13′,13′-dioxide]: the results for the IC50 on Mcl-1/Bim interaction and with OPM-2 (16 h) were 1.27 nM and 1120 nM, respectively.

Regarding `C[C@@H]1[C@@H](C)CCC[C@@H]([C@H]2OC[C@@H](N3CC(O)C3)CO2)[C@@H]2CC[C@H]2CN2C[C@@]3(CCCc4cc(Cl)ccc43)COc3ccc(cc32)C(=O)NS1(=O)=O` (single isomer, unassigned) [Example 62], the IC50 on Mcl-1/Bim interaction came to 2.08 nM; in the assay with OPM-2 (16 h) it was 4470 nM.

For `C[C@@H]1[C@@H](C)CCC[C@@H]([C@H]2OC[C@@H](N(C)C)CO2)[C@@H]2CC[C@H]2CN2C[C@@]3(CCCc4cc(Cl)ccc43)COc3ccc(cc32)C(=O)NS1(=O)=O` (relative stereo) [Example 2, (1S,3′R,6′R,7′R,11′S,12′R)-6-CHLORO-7′-(CIS-5-(DIMETHYLAMINO)-1,3-DIOXAN-2-YL)-11′,12′-DIMETHYL-3,4-DIHYDRO-2H,15′H-SPIRO[NAPHTHALENE-1,22′-[20]OXA[13]THIA[1,14]DIAZATETRACYCLO[14.7.2.0˜3,6˜.0˜19,24-]PENTACOSA[16,18,24]TRIEN]-15′-ONE 13′,13′-DIOXIDE], the IC50 on Mcl-1/Bim interaction was found to be 1.6 nM; in the assay on OPM-2 (16 h), 367 nM.

On to `COCCN(C)[C@H]1CO[C@@H]([C@H]2CCC[C@H](C)[C@@H](C)S(=O)(=O)NC(=O)c3ccc4c(c3)N(C[C@@H]3CC[C@H]32)C[C@@]2(CCCc3cc(Cl)ccc32)CO4)OC1` [Example 72, (1S,3′R,6′R,7′S,11′S,12′R)-6-chloro-7′-(cis-5-((2-methoxyethyl)(methyl)amino)-1,3-dioxan-2-yl)-11′,12′-dimethyl-3,4-dihydro-2H,15′H-spiro[naphthalene-1,22′-[20]oxa[13]thia[1,14]diazatetracyclo [14.7.2.0~3,6~.0~19,24~]pentacosa[16,18,24]trien]-15′-one 13′,13′-dioxide], for which the IC50 at Mcl-1/Bim interaction was 0.568 nM; with OPM-2 (16 h) it was 341 nM.
